In patent US20230348419A1, “BIAMINOQUINOLINES AND NANOFORMULATIONS FOR CANCER TREATMENT” (The Regents of the University of California, priority 2019, published 2023):
Read-outs that look alike come from different tables or passages of the source.

Experiments:
[1] = In vivo pharmacokinetic study; set-up: species or system Sprague-Dawley rats; details: rats, iv, DiD 0.5 mg kg^−1, plasma DiD fluorescence
Protocol: In vivo pharmacokinetic study. The jugular vein of female Sprague-Dawley rats (200-250 g) was implanted with a catheter for drug injection and blood collection (Harland, Indianapolis, IN, USA). Rats (n=3) were injected with free DiD, BAQ12 NPs@DiD (10:1, mass ratio) and BAQ13 NPs@DiD (10:1, mass ratio), respectively, which contained an equivalent dose of DiD (0.5 mg kg^−1). Blood samples were collected at the indicated time points and then were centrifuged to obtain the plasma. The plasma was diluted with DMSO (1:100), and the fluorescence intensity (λEx=595 nm, λEm=665 nm) was measured by a microplate reader (SpectraMax M2).

[2] = tested on: HT29 tumours; assay: In/ex vivo biodistribution, HT29 model; set-up: species or system nude mice; details: in vivo and ex vivo imaging, 12 h and 24 h post-injection
Protocol: In/ex vivo biodistribution. Nude mice bearing the HT29 tumours were subjected to iv administration of BAQ13 NPs@DiD (10:1, mass ratio) at a dose of 1.0 mg kg^−1 DiD. In vivo imaging studies were performed at the corresponding time point. Organs (brain, heart, lung, liver, spleen, kidney, intestines, and muscle) and tumours were collected from mice for ex vivo imaging. Biodistribution of BAQ13 NPs@ NAPA+DiD (10/2.5/1.0 mg kg^−1, iv) was studied on NRG mice bearing PCSC tumours. Both in vivo and ex vivo imaging studies were performed as above.

[3] = Drug loading using BAQ13 NPs; assay type: physicochemical
Protocol: Preparation and characterization of BAQ ONNs. NPs were prepared through the re-precipitation method. BAQ derivatives in methanol were added dropwise into MilliQ water while stirring for 5 min (volume ratio, 1:10), and then homogenous NPs were obtained after rotary evaporation (40° C., 20 min), followed by the characterization with Zetasizer Nano ZS (Malvern). The TEM samples were prepared by dropping 0.5 mM NPs on carbon square mesh and dried naturally, which were then observed under the Talos L120C TEM (FEI) at an accelerating voltage of 80 kV. To determine the drug content in nanoformulations, the prepared drug-loaded NPs were cut off by centrifugal filter (ultracel-10 kDa, Millipore), and the absorbance of filtrate (diluted with DMSO, 1:10, volume ratio) was measured for calculation of drug concentrations.
Next investigation was whether liposome-like BAQ ONNs can encapsulate additional agents. Upon nanoprecipitation of BAQ13 and various agents, homogeneous NPs with monomodal size distributions spontaneously formed (Table 2 and FIG. 9G).

[4] = tested on: MIA PaCa-2 tumours; assay: MIA PaCa-2 xenograft model; assay type: in vivo, NRG mice; details: 20 mg kg^−1 every three days
Protocol: In vivo treatment schedule.
Antitumour effect as single agents in mice. After proving the safety of BAQ ONNs, the NPs for anticancer efficacy was evaluated in a pancreatic xenograft model of MIA PaCa-2 cells. NRG mice with MIA PaCa-2 tumours (˜100 mm^3) were randomly assigned into five groups (n=6): the saline (iv) group, the Lys05 (ip) group, the liposomes@Lys05 (iv) group, the BAQ12 NPs (iv) group and the BAQ13 NPs (iv) group. The mice were then treated every three days at a dose of 20 mg kg^−1. […] These findings clearly illustrate the potential advantages of BAQ ONNs with regard to both drug discovery and drug delivery.

[5] = tested on: Red blood cells; assay: pH-dependent haemolysis test; assay type: cell-based; details: whole pH range, same concentration (50 μM, 4 h)
Protocol: After centrifugation at 500×g for 5 min, the extent of haemolysis was spectrophotometrically determined according to the amount of haemoglobin in supernatants (540 nm). The haemolysis assay was used to assess the pH-dependent detergence ability and toxicity of NPs.

[6] = tested on: HT29 tumours; assay: HT29 xenograft model; details: mice bearing HT29 tumours, treatment terminated on the 24th day
Protocol: Animal model. To establish the subcutaneous xenograft models, 5×10^6 of MIA PaCa-2 cells, 2×10^6 of HT29 cells or 2×10^4 PCSCs suspended with Matrigel (Corning) and PBS mixture (1:1, volume ratio) were injected subcutaneously into the right flank of nude mice or NRG mice, respectively.
In vivo treatment schedule. The NRG mice bearing MIA PaCa-2 xenograft tumours (˜100 mm^3) were randomized into 5 groups (n=6), and then were subjected to iv injection every three days as indicated. […] The treatment on HT29 model was stopped on Day 24, and then the mice survival in each group was recorded, in which the mouse with a tumour larger than 1,000 mm^3 was considered dead. […] The tumour volume and body weight were recorded before drug administration every time. At the end of the treatment, mice were sacrificed and the tumours were collected for further analysis.

[7] = tested on: PANC-1; assay: MTS cell viability assay; assay type: cell-based, human
Protocol: (§1) Cell line and cell culture. The human pancreatic cancer cell lines (MIA PaCa-2, BXPC3, and PANC-1) were originally purchased from ATCC and were kindly provided by Dr. Shiro Urayama's Lab. HT29, HCT116, H460, MCF7, NIH/3T3, and IMR-90 cell lines were purchased from ATCC. Bone marrow cells were collected from the leg bone marrows of FVB/N mice. All the cells were cultured at 37° C. in a humidified atmosphere of 5% CO2/95% air using the corresponding medium supplemented with 10% fetal bovine serum, […] according to ATCC protocol. All the cell lines have been tested for mycoplasma contamination routinely.
(§2) Cell viability, cell growth and colony formation. Cell viability was assessed by the MTS assay. Briefly, cells in 96-well plates (4,000 cell per well) were treated as indicated, followed by the incubation with MTS regents for 4 h. OD values (490 nm) were determined via a microplate reader. Results were shown as the average cell viability calculated from the formula of [(ODtreat−ODblank)/(ODcontrol−ODblank)×100%]. Drug combination data were analyzed by Combenefit 2.02. In cell growth assay, cells in 6-well plates (50,000 cell per well) were treated as indicated and were counted manually every 24 h. Colony formation assay was also performed on 6-well plates with a starting density of 1,000-2,000 cells per well. After incubated as indicated for 10-20 days, cells were washed with PBS and stained with the solution of crystal violet and methanol for 20 min.

[8] = tested on: BXPC-3; assay: MTS cell viability assay; assay type: cell-based, human
Protocol: as §1, §2

[9] = tested on: MIA PaCa-2; assay: MTS cell viability assay; assay type: cell-based, human; details: 24 h; read-out: IC50 (μM) in the 24 h treatment MIA PaCa-2
Protocol: as §1, §2

[10] = tested on: MIA PaCa-2 cells; assay: RNA sequencing, differentially expressed genes; assay type: cell-based, human; details: 5 μM, 24 h, vs vehicle
Protocol: RNA-seq. Total RNA was extracted by the RNeasy Mini Kit (Qiagen, Germany) from the treated MIA PaCa-2 cells (5 μM, 24 h). Samples were submitted to the UC Davis Comprehensive Cancer Center's Genomics Shared Resource (GSR) for RNA-Seq analysis. Stranded RNA-Seq libraries were prepared from 100 ng total RNA using the NEBNext Ultra Directional RNA Library Prep Kit (New England BioLabs). Subsequently, libraries were combined for multiplex sequencing on an Illumina HiSeq 4000 System (2×150 bp, paired-end, >20×10^6 reads per sample). The data of normalized genes read counts were analyzed using fold change and t test. The Differentially expressed genes (DEGs) were collected for the signaling pathways enrichment by Funrich software 3.1.3. The gene sets were from MSigDB database (Broad Institute). GSEA was performed using GSEA version 3.0 in KEGG gene sets category online, with the following parameters: n=1,000 permutations, where p-adjust <0.05, and FDR <0.05 were considered significant.

[11] = tested on: Bone marrow cells; assay: MTS cell viability assay; assay type: cell-based, FVB/N mice; details: 48 h, non-cancerous cells; read-out: IC50 values from the 48 h MTS assay (μM) Bone marrow
Protocol: as §1
as §2, with “After incubated as indicated for 10-20 days, cells were washed with PBS and stained with the solution of crystal violet and methanol for 20 min.” left out

[12] = tested on: MCF-7; assay: MTS cell viability assay; assay type: cell-based; details: 24 h; read-out: IC50 (μM) in the 24 h treatment MCF-7
Protocol: as §1, §2

[13] = tested on: NIH/3T3; assay: MTS cell viability assay; assay type: cell-based; details: 48 h, non-cancerous cells; read-out: IC50 values from the 48 h MTS assay (μM) NIH/3T3
Protocol: as §1, §2

[14] = tested on: HT29; assay: MTS cell viability assay; assay type: cell-based; details: 24 h; read-out: IC50 (μM) in the 24 h treatment HT29
Protocol: as §1, §2

[15] = tested on: IMR-90; assay: MTS cell viability assay; assay type: cell-based; details: 48 h, non-cancerous cells; read-out: IC50 values from the 48 h MTS assay (μM) IMR-90
Protocol: as §1, §2

[16] = tested on: HCT116; assay: MTS cell viability assay; assay type: cell-based; details: 48 h; read-out: IC50 values from the 48 h MTS assay (μM) HCT116
Protocol: as §1, §2

[17] = tested on: H460; assay: MTS cell viability assay; assay type: cell-based; details: 24 h; read-out: IC50 (μM) in the 24 h treatment H460
Protocol: as §1, §2

[18] = Titration with hydrochloric acid (pH buffering capacity); assay type: physicochemical; details: 1 mM, 0.1 M HCl
[19] = In vivo toxicity studies; set-up: species or system FVB/N mice; details: 10 mg kg^−1, iv
Protocol: In vivo toxicity studies. The toxicity of BAQ NPs was investigated on female FVB/N mice via iv injection. Mice were administrated with various concentrations (10 mg kg^−1, 20 mg kg^−1 or 40 mg kg^−1) of Lys05, Liposomes@Lys05, BAQ12 NPs, and BAQ13 NPs every two days. The status of mice was monitored every day and their body weight was recorded every two days. Blood samples were collected and sent to the UCD Comparative Pathology Laboratory for tests of complete blood count (CBC) and serum chemistry.

[20] = BAQ13 NPs loaded with the drug or dye

Q: Which results are given for `CCCCCCCCCCCCCCCCCCN1C(=CC=CC=CC2=[N+](CCCCCCCCCCCCCCCCCC)c3ccccc3C2(C)C)C(C)(C)c2ccccc21.[O-][Cl+3]([O-])([O-])[O-]` [Free DiD, 1,1′-dioctadecyl-3,3,3′,3′-tetramethylindodicarbocyanine perchlorate]?
A: T1/2 [1]: 48 min; biodistribution of fluorescence signals [2]: high signals in the lungs, rather than in the tumour sites; PDI [3, 20]: 0.1; Size/diameter [3, 20]: 120 nm; Encapsulation efficiency ([3]; drug or dye loaded in BAQ13 NPs): 100%; Drug-loading content ([3]; drug or dye loaded in BAQ13 NPs, mass ratio): 50%

Q: What does the source list for `CN(CCNc1ccnc2cc(Cl)ccc12)CCNc1ccnc2cc(Cl)ccc12` [Lys05]?
A: tumour growth [4]: did not display a therapeutic effect; haemolytic response to pH [5]: did not elicit observable haemolysis; Median Survival [6]: 28 days; IC50 ([7]; 24 h, read-out: IC50 (μM) in the 24 h treatment PANC-1): 13.3 ± 2 µM; IC50 ([7]; 48 h, read-out: IC50 values from the 48 h MTS assay (μM) PANC-1): 10.8 ± 0.9 µM; IC50 ([8]; 24 h, read-out: IC50 (μM) in the 24 h treatment BXPC-3): 7.8 ± 0.9 µM; IC50 ([8]; 48 h, read-out: IC50 values from the 48 h MTS assay (μM) BXPC-3): 11.1 ± 1.7 µM; IC50 [9]: 16.7 ± 4.7 µM; downregulated genes [10]: 103; upregulated genes [10]: 62; differentially expressed genes (DEGs) ([10]; fold change≥2 and p value≤0.05): 165; IC50 [11]: 14 ± 1.1 µM; IC50 [12]: 12.3 ± 0.7 µM; IC50 [13]: 12.6 ± 0.9 µM; IC50 [14]: 10.6 ± 3.4 µM; IC50 [15]: 15.5 ± 2.5 µM; IC50 [16]: 8 ± 0.7 µM; IC50 [17]: 11.1 ± 0.6 µM; pH plateau upon titration with HCl [18]: 7.2; mortality after iv administration [19]: acute death of mice
